The record followed here is patent US20080279843A1, “Method For Improving Insulin Sensitivity By Administering an Inhibitor of Antitrypsin” (Essential SkinCare, LLC, priority 2003, published 2008).

Experiment [1] deals with differentiated rat L6 muscle cells. The experiment can be described thus: Synthesis of [14C]total lipid from radiolabeled glucose. Particulars: FIG. 4C, 5 hours. Type of experiment: cell-based. The method, then:
(§1) Rat L6 skeletal muscle cells were obtained from the American Type Culture Collection, Rockville, Md. L6 cell monolayers were induced to differentiate in Minimal Essential Medium (MEM) containing 2% (v/v) fetal bovine serum (FBS) and 1% (v/v) antibiotic/antimycotic solution. The cells were fed fresh medium every 48 hours. Myoblast differentiation, which occurred by about the 7-9th day, was monitored by phase contrast microscopy. Differentiated L6 cells are widely used models for studying glucose metabolism in the skeletal muscle. The present study was focused on these cells, because skeletal muscle accounts for about 70-80% of total blood glucose metabolism in the human body.
To examine cellular glucose uptake and metabolism, differentiated (attached) cells in 12-well plates were incubated at 37° C. in a CO2 incubator (95% air: 5% CO2) with D-[^14C]glucose (1 μCi/mL) in 2% FBS-containing medium containing 5.5 mM unlabeled glucose for 0.5-6 hours as indicated at the corresponding Figures. […] Cells were washed twice with 3 ml medium to remove traces of medium containing unincorporated radioactivity. […]
Aliquots of the upper and lower phases were taken to scintillation vials to determine the amounts of radiolabeled glucose and total lipids, respectively, by liquid scintillation counting. […] No additional radioactivity could be removed from the well by neutralized 30% KOH. […]

The subject of experiment [2] is C57/Black female mice. The experiment can be described thus: Glucose tolerance test with purified AT alone (Example 4). The following applies: mice fasted 24 h; for Glucose level: purified AT 1200 μg i.p. 24 h before glucose 3 g/kg i.p., mean ± S.D., n=4. Type of experiment: in vivo. The method, then:
C57/Black female mice, weighing 22-25 g were fasted for 24 hours. Four animals were used for each of two groups. The first group received intraperitoneal injections of 1200 μg purified AT, i.e. AT purified by the procedure of Example 1. Exactly 24 hours after the AT was administered to the first group, glucose (3 g/kg) was injected intraperitoneally into mice in both groups. Blood samples were immediately measured with the fast Glucose C test (Wako Chemicals Inc. Richmond, Va., USA). The experiment was repeated a second time.
The data presented for each experiment are the mean ±S.D. of four determinations, one with each animal.

Experiment [3] deals with differentiated rat L6 muscle cells. The experiment can be described thus: Synthesis of [14C]glycogen from radiolabeled glucose. In kind it is cell-based. The method, then: as §1
To examine cellular glucose uptake and metabolism, differentiated (attached) cells in 12-well plates were incubated at 37° C. in a CO2 incubator (95% air: 5% CO2) with D-[^14C]glucose (1 μCi/mL) in 2% FBS-containing medium containing 5.5 mM unlabeled glucose for 0.5-6 hours as indicated at the corresponding Figures. At the termination of incubation, the medium was removed. An aliquot of the medium was taken to determine the loss of [^14C]glucose from the medium which corresponds to its uptake by cells. Cells were washed twice with 3 ml medium to remove traces of medium containing unincorporated radioactivity. Ice-cold 99.8% methanol/0.2% water (v/v) mixture (1 ml) was then added to the monolayers and cells were extracted for 2 hours at −20° C. […] The methanol phase (1 ml) and a following 1 ml methanol wash were added to 2 ml chloroform followed by the addition of 3 ml water. Of the resulting two phases (separation was facilitated by brief centrifugation), the lower phase contained the total radiolabeled lipids, while the upper phase contained [^14C]glucose.
Aliquots of the upper and lower phases were taken to scintillation vials to determine the amounts of radiolabeled glucose and total lipids, respectively, by liquid scintillation counting. Precipitated [^14C]glycogen was suspended in 0.75 ml of 1 M NaOH and transferred to scintillation vial. This procedure was repeated with another 0.75 ml aliquot of NaOH. To neutralize the suspension, […] (approximately 150 μL) was then added to the vials, followed by the addition of 8.5 ml Ecolume (scintillation fluid). While the 1 M NaOH suspension contained some particulate material (mostly protein which was not labeled with radiolabeled glucose), no precipitate remained in the suspension after addition of Ecolume. […] No additional radioactivity could be removed from the well by neutralized 30% KOH.
In some experiments, a published procedure [Huang, D., Cheung, A. T., Parsons, J. T. and Bryer-Ash, M. “Focal adhesion kinase (FAK) regulates insulin-stimulated glycogen synthesis in hepatocytes.” J. Biol. Chem. 277, 18151-18160, (2002)] was used to determine glucose incorporation into glycogen in a method similar to the one described above. After incubations with [^14C] glucose, cells were solubilized with 20% KOH for 2 hours. Lysates were extracted with 8% […], neutralized with 2.0 M HCl, then boiled for 5 min. The total glycogen was precipitated by the addition of 80% ethanol (final concentration) for 2 hours at −20° C. followed by centrifugation at 1100×g for 10 min. This step was repeated.
After the pellets had been re-dissolved in distilled water, the samples were precipitated again using the same method described above, and yielded essentially the same results. In subsequent experiments the initial methanol precipitation method described above was used because it allowed for analysis of cellular glucose, glycogen and lipids from the same sample.
Three groups of differentiated L6 cells, incubated in 12-well plates in 2% FBS-containing medium, were treated as follows. A first control group ([…]) was untreated. A second group (▴) was treated with 500 nM insulin for 30 min. A third group (▪) was treated first with 0.4 mg/ml of AT followed by an addition of 500 nM insulin for 30 min. […]

For experiment [4], the system named is C57/Black female mice. As to the kind of experiment: Glucose tolerance test with insulin and commercial AT (Example 2). In kind it is in vivo. The method, then: C57/Black female mice weighing 22-23 g were fasted for 16 hours. Four animals were used for each of four treatment groups. The first and fourth treatment group received intraperitoneal injections of 1500 μg commercially obtained AT. Exactly 23 hours and 45 minutes after the AT was administered to the first and fourth treatment group, the animals in the first and second treatment group received 0.5 I.U. of insulin. Exactly 15 minutes after the insulin was administered (i.e., 24 hours after the AT was administered to the first treatment group), glucose (3 g/kg) was injected intraperitoneally into the first, second and third treatment groups. Blood samples were taken from the eyes (canthus), and glucose concentrations in whole blood samples were immediately measured with the fast Glucose C test (Wako Chemicals USA Inc., Richmond, Va., USA). The data presented are the mean ±S.D. of four determinations, one with each animal.

Where [5] appears, read: highly purified AT 1200 μg i.p. 24 h before glucose 3 g/kg i.p.

For the substance α1-antitrypsin [AT], the “Effect of AT on cellular level of [14C]total lipid in the absence of insulin” value in experiment [1] (0.05 to 0.4 mg/ml AT) is given as “did not significantly affect”. In experiment [1] (0.2 to 0.4 mg/ml AT, 500 nM insulin), the “Decrease of synthesis of [14C]total lipid by AT in the presence of insulin” value was “at least 50%”. The Glucose level was determined as 2.3 ± 0.3 mM in the experiment with C57/Black female mice [2] (Experiment 1, 0 min); 8.5 ± 0.6 mM in the experiment on C57/Black female mice [2] (Experiment 1, 30 min); 7.1 ± 0.5 mM in the experiment with C57/Black female mice [2] (Experiment 1, 60 min); 6.1 ± 0.4 mM with C57/Black female mice [2] (Experiment 1, 120 min); 4.7 ± 0.5 mM in the experiment on C57/Black female mice [2] (Experiment 1, 180 min); 2.7 ± 0.3 mM with C57/Black female mice [2] (Experiment 2, 0 min). In addition, the Glucose level in the experiment on C57/Black female mice [2] (Experiment 2, 30 min) came to 7.9 ± 0.3 mM; in the experiment on C57/Black female mice [2] (Experiment 2, 60 min) it was 6.5 ± 0.5 mM; in the experiment on C57/Black female mice [2] (Experiment 2, 120 min), 5.9 ± 0.4 mM; with C57/Black female mice [2] (Experiment 2, 180 min), 4.5 ± 0.4 mM. In addition, the “Effect of AT on blood glucose level in the first 60 min after glucose” value in the experiment with C57/Black female mice [2] (setting [5]) is on record as “no major effects in the first 60 min”. Further, the “Effect of AT on return of blood glucose level to near-normal level during the next 120 min” value in the experiment with C57/Black female mice [2] (setting [5]) was “clearly delayed return of blood glucose level to near-normal level”. Also, in experiment [3] (0.4 mg/ml AT, 500 nM insulin, 30 min incubation), the “Effect of AT on the insulin effect on [14C]glycogen, short incubation” value is “no such inhibitory effects”. Further, the “Effect of AT on insulin-stimulated synthesis of [14C]glycogen” value in experiment [3] (FIG. 3B, 0.4 mg/ml purified AT, incubations for 2 hrs or 6 hours) is recorded as “inhibited both insulin effects”. In addition, the “Effect of AT on cellular level of [14C]glycogen in the absence of insulin” value in experiment [3] (FIG. 4B, 0.05 to 0.4 mg/ml AT, 5 hours) was “did not significantly affect”. Besides, the “Decrease of synthesis of cellular [14C]glycogen by AT in the presence of insulin” value in experiment [3] (FIG. 4B, 0.2 to 0.4 mg/ml AT, 500 nM insulin, 5 hours) is reported as “at least 50%”. In experiment [3] (FIG. 5, 0.4 mg/ml AT, 500 nM insulin, 5 hours), the “Inhibition by AT of the insulin effect on [14C]glycogen synthesis” value was “about 70%”. Further, in the experiment on C57/Black female mice [4] (FIG. 2, AT 1.5 mg/mouse i.p. 24 h prior, insulin 0.5 I.U., glucose 3 g/kg i.p.), the “Effect of AT on the action of insulin on blood glucose level” value is on record as “blocked the action of insulin”. Besides, the “Effect of AT alone on the blood glucose level” value in the experiment with C57/Black female mice [4] (FIG. 2 insert, AT 1.5 mg/mouse i.p., no insulin, no glucose (fourth treatment group)) is on record as “no significant effect on the blood glucose level”.
